According to PubChem BioAssay (NCI):
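How tested: cells in 96-well plates exposed to compound for 48 hours at five concentrations. GI50 marks 50% less growth. The concentration for full growth arrest is given as TGI.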

What was measured:
Assay in all cases: NCI tumour cell line growth inhibition, 48 h
786-0 renal = tested on: 786-0 renal
A498 renal = tested on: A498 renal
A549 NSCLC = tested on: A549 NSCLC
ACHN renal = tested on: ACHN renal
BT-549 breast = tested on: BT-549 breast
CAKI-1 renal = tested on: CAKI-1 renal
CCRF-CEM leukemia = tested on: CCRF-CEM leukemia
COLO 205 colon = tested on: COLO 205 colon
DU-145 prostate = tested on: DU-145 prostate
EKVX NSCLC = tested on: EKVX NSCLC
HCC-2998 colon = tested on: HCC-2998 colon
HCT-116 colon = tested on: HCT-116 colon
HCT-15 colon = tested on: HCT-15 colon
HL-60(TB) leukemia = tested on: HL-60(TB) leukemia
HOP-62 NSCLC = tested on: HOP-62 NSCLC
HOP-92 NSCLC = tested on: HOP-92 NSCLC
HS 578T breast = tested on: HS 578T breast
HT29 colon = tested on: HT29 colon
IGROV1 ovarian = tested on: IGROV1 ovarian
K-562 leukemia = tested on: K-562 leukemia
KM12 colon = tested on: KM12 colon
LOX IMVI melanoma = tested on: LOX IMVI melanoma
M14 melanoma = tested on: M14 melanoma
MALME-3M melanoma = tested on: MALME-3M melanoma
MCF7 breast = tested on: MCF7 breast
MDA-MB-231 breast = tested on: MDA-MB-231 breast
MDA-MB-435 = tested on: MDA-MB-435
MOLT-4 leukemia = tested on: MOLT-4 leukemia
NCI-H226 lung = tested on: NCI-H226 lung
NCI-H23 lung = tested on: NCI-H23 lung
NCI-H460 lung = tested on: NCI-H460 lung
NCI-H522 lung = tested on: NCI-H522 lung
NCI/ADR-RES ovarian = tested on: NCI/ADR-RES ovarian
OVCAR-3 ovarian = tested on: OVCAR-3 ovarian
OVCAR-4 ovarian = tested on: OVCAR-4 ovarian
OVCAR-5 ovarian = tested on: OVCAR-5 ovarian
OVCAR-8 ovarian = tested on: OVCAR-8 ovarian
PC-3 prostate = tested on: PC-3 prostate
RPMI-8226 leukemia = tested on: RPMI-8226 leukemia
RXF 393 renal = tested on: RXF 393 renal
SF-268 CNS = tested on: SF-268 CNS
SF-295 CNS = tested on: SF-295 CNS
SF-539 CNS = tested on: SF-539 CNS
SK-MEL-2 melanoma = tested on: SK-MEL-2 melanoma
SK-MEL-28 melanoma = tested on: SK-MEL-28 melanoma
SK-MEL-5 melanoma = tested on: SK-MEL-5 melanoma
SK-OV-3 ovarian = tested on: SK-OV-3 ovarian
SN12C renal = tested on: SN12C renal
SNB-19 CNS = tested on: SNB-19 CNS
SNB-75 CNS = tested on: SNB-75 CNS
SR leukemia = tested on: SR leukemia
SW-620 colon = tested on: SW-620 colon
T-47D breast = tested on: T-47D breast
TK-10 renal = tested on: TK-10 renal
U251 CNS = tested on: U251 CNS
UACC-257 melanoma = tested on: UACC-257 melanoma
UACC-62 melanoma = tested on: UACC-62 melanoma
UO-31 renal = tested on: UO-31 renal

## O=C1NC(=O)c2c1c1c3ccccc3ccc1c1[nH]c3ccccc3c21
786-0 renal
  GI50: 1200 nM
  TGI: 16600 nM
A498 renal
  GI50: 491 nM
  TGI: 2710 nM
A549 NSCLC
  GI50: 971 nM
  TGI: > 100000 nM
ACHN renal
  GI50: 336 nM
  TGI: 13200 nM
BT-549 breast
  GI50: 279 nM
  TGI: 2330 nM
CAKI-1 renal
  GI50: 228 nM
  TGI: 11700 nM
CCRF-CEM leukemia
  GI50: 457 nM
  TGI: > 68700 nM
COLO 205 colon
  GI50: 1300 nM
  TGI: > 100000 nM
DU-145 prostate
  GI50: 960 nM
  TGI: > 100000 nM
EKVX NSCLC
  GI50: 2040 nM
  TGI: > 58400 nM
HCC-2998 colon
  GI50: 7650 nM
  TGI: > 100000 nM
HCT-116 colon
  GI50: 852 nM
  TGI: > 100000 nM
HCT-15 colon
  GI50: 593 nM
  TGI: > 100000 nM
HL-60(TB) leukemia
  GI50: 233 nM
  TGI: > 100000 nM
HOP-62 NSCLC
  GI50: 925 nM
  TGI: 17600 nM
HOP-92 NSCLC
  GI50: 857 nM
  TGI: 7420 nM
HS 578T breast
  GI50: 1080 nM
  TGI: > 31500 nM
HT29 colon
  GI50: 631 nM
  TGI: > 91100 nM
IGROV1 ovarian
  GI50: 529 nM
  TGI: > 56200 nM
K-562 leukemia
  GI50: 543 nM
  TGI: > 91100 nM
KM12 colon
  GI50: 115 nM
  TGI: > 100000 nM
LOX IMVI melanoma
  GI50: 1380 nM
  TGI: > 100000 nM
M14 melanoma
  GI50: 322 nM
  TGI: > 100000 nM
MALME-3M melanoma
  GI50: 207 nM
  TGI: 6010 nM
MCF7 breast
  GI50: 327 nM
  TGI: > 100000 nM
MDA-MB-231 breast
  GI50: 1150 nM
  TGI: > 100000 nM
MDA-MB-435
  GI50: 247 nM
  TGI: > 100000 nM
MOLT-4 leukemia
  GI50: 444 nM
  TGI: 7480 nM
NCI-H226 lung
  GI50: 641 nM
NCI-H23 lung
  GI50: 699 nM
  TGI: > 100000 nM
NCI-H460 lung
  GI50: 400 nM
  TGI: 24400 nM
NCI-H522 lung
  GI50: 568 nM
  TGI: 15600 nM
NCI/ADR-RES ovarian
  GI50: 1570 nM
  TGI: > 87000 nM
OVCAR-3 ovarian
  GI50: 2430 nM
  TGI: 19300 nM
OVCAR-4 ovarian
  GI50: 1790 nM
  TGI: 19600 nM
OVCAR-5 ovarian
  GI50: 1630 nM
  TGI: > 100000 nM
OVCAR-8 ovarian
  GI50: 1290 nM
  TGI: 24800 nM
PC-3 prostate
  GI50: 420 nM
  TGI: 30400 nM
RPMI-8226 leukemia
  GI50: 500 nM
  TGI: > 100000 nM
RXF 393 renal
  GI50: 317 nM
  TGI: 1840 nM
SF-268 CNS
  GI50: 1430 nM
  TGI: 34300 nM
SF-295 CNS
  GI50: 1610 nM
  TGI: 14600 nM
SF-539 CNS
  GI50: 663 nM
  TGI: 35700 nM
SK-MEL-2 melanoma
  GI50: 1200 nM
  TGI: > 100000 nM
SK-MEL-28 melanoma
  GI50: 911 nM
  TGI: > 100000 nM
SK-MEL-5 melanoma
  GI50: 1160 nM
  TGI: 26600 nM
SK-OV-3 ovarian
  GI50: 354 nM
  TGI: 6430 nM
SN12C renal
  GI50: 516 nM
  TGI: > 88200 nM
SNB-19 CNS
  GI50: 2510 nM
  TGI: 17000 nM
SNB-75 CNS
  GI50: 4020 nM
  TGI: 16600 nM
SR leukemia
  GI50: 169 nM
  TGI: 2920 nM
SW-620 colon
  GI50: 717 nM
  TGI: > 100000 nM
T-47D breast
  GI50: 524 nM
  TGI: > 70900 nM
TK-10 renal
  GI50: 486 nM
  TGI: 11400 nM
U251 CNS
  GI50: 1060 nM
  TGI: 15700 nM
UACC-257 melanoma
  GI50: 3740 nM
  TGI: > 80400 nM
UACC-62 melanoma
  GI50: 749 nM
  TGI: > 62300 nM
UO-31 renal
  GI50: 239 nM
  TGI: 21900 nM
